{"source": "paper PMC11062922", "about": "(Nature Chemical Biology, 2023)", "key": {"CDC42BPG": {"tested_on": "CDC42BPG", "experiment": "Kinobeads competition binding: CDC42BPG", "design": "species or system human", "details": "target CDC42BPG"}, "COX5A": {"tested_on": "COX5A", "experiment": "Kinobeads competition binding: COX5A;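 further: share of total target engagement due to this protein at one drug concentration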", "design": "species or system human", "details": "target COX5A"}, "AURKB": {"molecular_target": "T1, AURKB (Homo sapiens, UniProt Q96GD4)", "T1 construct": "endogenous in cells", "T1 sequence (Q96GD4 whole entry)": "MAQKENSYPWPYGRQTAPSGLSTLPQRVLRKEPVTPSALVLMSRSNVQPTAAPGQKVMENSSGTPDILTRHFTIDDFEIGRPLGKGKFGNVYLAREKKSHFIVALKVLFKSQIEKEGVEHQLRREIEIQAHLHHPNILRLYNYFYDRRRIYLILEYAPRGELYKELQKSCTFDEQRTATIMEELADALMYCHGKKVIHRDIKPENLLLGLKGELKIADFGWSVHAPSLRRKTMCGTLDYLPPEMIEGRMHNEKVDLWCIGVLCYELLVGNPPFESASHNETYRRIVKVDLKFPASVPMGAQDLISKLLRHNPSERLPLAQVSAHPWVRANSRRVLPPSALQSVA", "experiment": "Kinobeads competition binding: AURKB", "details": "target AURKB"}, "CDK5": {"molecular_target": "T2, CDK5 (Homo sapiens, UniProt Q00535)", "T2 construct": "endogenous in cells", "T2 sequence (Q00535 whole entry)": "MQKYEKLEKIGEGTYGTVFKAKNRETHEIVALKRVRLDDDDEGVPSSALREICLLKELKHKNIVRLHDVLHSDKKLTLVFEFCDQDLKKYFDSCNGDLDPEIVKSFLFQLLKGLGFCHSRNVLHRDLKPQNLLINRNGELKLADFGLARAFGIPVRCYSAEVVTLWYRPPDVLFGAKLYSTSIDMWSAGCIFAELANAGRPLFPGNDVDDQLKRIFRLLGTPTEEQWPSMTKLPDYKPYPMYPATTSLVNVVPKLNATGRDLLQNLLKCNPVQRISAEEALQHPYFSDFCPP", "experiment": "Kinobeads competition binding: CDK5", "details": "target CDK5"}, "CSNK1D": {"molecular_target": "T3, CSNK1D (Homo sapiens, UniProt P48730)", "T3 construct": "endogenous in cells", "T3 sequence (P48730 whole entry)": "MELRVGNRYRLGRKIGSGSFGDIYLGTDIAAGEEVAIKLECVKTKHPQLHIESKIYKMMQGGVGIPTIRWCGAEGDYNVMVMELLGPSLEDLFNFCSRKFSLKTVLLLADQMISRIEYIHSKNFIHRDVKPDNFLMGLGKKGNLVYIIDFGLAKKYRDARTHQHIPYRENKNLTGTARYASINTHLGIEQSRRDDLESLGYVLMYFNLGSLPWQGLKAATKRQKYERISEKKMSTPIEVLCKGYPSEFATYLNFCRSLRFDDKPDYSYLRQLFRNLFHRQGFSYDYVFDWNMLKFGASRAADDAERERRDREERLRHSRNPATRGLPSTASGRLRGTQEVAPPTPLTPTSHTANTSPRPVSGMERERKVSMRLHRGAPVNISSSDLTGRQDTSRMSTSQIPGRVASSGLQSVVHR", "experiment": "Kinobeads competition binding: CSNK1D", "details": "target CSNK1D"}, "CDKL5": {"molecular_target": "T4, CDKL5 (Homo sapiens, UniProt O76039)", "T4 construct": "endogenous in cells", "T4 sequence (O76039 1-960)": "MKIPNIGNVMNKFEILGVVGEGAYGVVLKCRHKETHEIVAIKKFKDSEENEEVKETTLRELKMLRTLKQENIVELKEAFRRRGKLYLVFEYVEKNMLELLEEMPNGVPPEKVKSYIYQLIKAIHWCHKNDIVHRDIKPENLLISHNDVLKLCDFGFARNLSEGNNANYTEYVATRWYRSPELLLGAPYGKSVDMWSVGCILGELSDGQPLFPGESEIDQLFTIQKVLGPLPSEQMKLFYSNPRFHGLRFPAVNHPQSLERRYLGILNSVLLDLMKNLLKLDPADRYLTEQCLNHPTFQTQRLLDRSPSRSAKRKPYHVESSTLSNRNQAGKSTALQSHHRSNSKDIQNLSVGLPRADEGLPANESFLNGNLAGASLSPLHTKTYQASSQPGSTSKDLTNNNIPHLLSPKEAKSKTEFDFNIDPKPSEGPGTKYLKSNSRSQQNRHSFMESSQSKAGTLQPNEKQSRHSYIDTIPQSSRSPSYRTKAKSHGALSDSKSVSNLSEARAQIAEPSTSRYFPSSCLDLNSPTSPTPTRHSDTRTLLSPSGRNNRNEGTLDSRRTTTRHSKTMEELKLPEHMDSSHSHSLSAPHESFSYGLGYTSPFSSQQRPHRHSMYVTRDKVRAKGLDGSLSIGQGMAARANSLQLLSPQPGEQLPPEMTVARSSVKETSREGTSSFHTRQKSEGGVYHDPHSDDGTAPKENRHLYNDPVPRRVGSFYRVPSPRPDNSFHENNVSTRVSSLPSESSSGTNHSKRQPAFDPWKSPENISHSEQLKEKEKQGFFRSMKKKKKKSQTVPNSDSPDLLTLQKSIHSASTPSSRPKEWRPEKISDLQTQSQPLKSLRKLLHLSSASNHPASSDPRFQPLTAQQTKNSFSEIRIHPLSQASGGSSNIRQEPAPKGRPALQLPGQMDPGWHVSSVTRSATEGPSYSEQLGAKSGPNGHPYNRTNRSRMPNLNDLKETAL", "experiment": "Kinobeads competition binding: CDKL5", "details": "target CDKL5", "excerpt": "Supplement 41589_2023_1459_MOESM4_ESM.xlsx, sheet \"CATDS matrix\" | column: CDKL5"}}}
{"compound": "CCc1cc2c(cc1N1CCC(N3CCOCC3)CC1)C(C)(C)c1[nH]c3cc(C#N)ccc3c1C2=O", "note": "[Alectinib]", "values": [{"measurement": "CATDS", "setting": "CDC42BPG", "result": 0}, {"measurement": "CATDS", "setting": "COX5A", "result": 0}, {"measurement": "CATDS", "setting": "AURKB", "result": 0}, {"measurement": "CATDS", "setting": "CDK5", "result": 0}, {"measurement": "CATDS", "setting": "CSNK1D", "result": 0}, {"measurement": "CATDS", "setting": "CDKL5", "result": 0}]}
{"compound": "CCN1CCN(Cc2ccc(Nc3ncc(F)c(-c4cc(F)c5nc(C)n(C(C)C)c5c4)n3)nc2)CC1", "note": "[Abemaciclib]", "values": [{"measurement": "CATDS", "setting": "CDC42BPG", "result": 0}, {"measurement": "CATDS", "setting": "COX5A", "result": 0}, {"measurement": "CATDS", "setting": "AURKB", "result": 0}, {"measurement": "CATDS", "setting": "CDK5", "result": 0}, {"measurement": "CATDS", "setting": "CSNK1D", "result": 0}, {"measurement": "CATDS", "setting": "CDKL5", "result": 0.6907}]}
{"compound": "Nc1ncnc2[nH]c(-c3ccccc3)nc12", "note": "[AH5015_KCGS]", "values": [{"measurement": "CATDS", "setting": "CDC42BPG", "result": 0}, {"measurement": "CATDS", "setting": "COX5A", "result": 0}, {"measurement": "CATDS", "setting": "AURKB", "result": 0}, {"measurement": "CATDS", "setting": "CDK5", "result": 0}, {"measurement": "CATDS", "setting": "CSNK1D", "result": 0}, {"measurement": "CATDS", "setting": "CDKL5", "result": 0}]}
{"compound": "N#CC1(c2ccc(NC(=O)c3cccnc3NCc3ccncc3)cc2)CCCC1", "note": "[Apatinib]", "values": [{"measurement": "CATDS", "setting": "CDC42BPG", "result": 0}, {"measurement": "CATDS", "setting": "COX5A", "result": 0}, {"measurement": "CATDS", "setting": "AURKB", "result": 0}, {"measurement": "CATDS", "setting": "CDK5", "result": 0}, {"measurement": "CATDS", "setting": "CSNK1D", "result": 0}, {"measurement": "CATDS", "setting": "CDKL5", "result": 0}]}
{"compound": "CN(C)C/C=C/C(=O)Nc1cc2c(Nc3ccc(F)c(Cl)c3)ncnc2cc1O[C@H]1CCOC1", "note": "[Afatinib]", "values": [{"measurement": "CATDS", "setting": "COX5A", "result": 0}, {"measurement": "CATDS", "setting": "CSNK1D", "result": 0}, {"measurement": "CATDS", "setting": "CDKL5", "result": 0}]}
